System: U2OS cells
Experiment: DNA damage, γH2AX immunofluorescence
Type: cell-based
Method: Immunofluorescent analysis and microscopy. Cells were treated with MASM7, MFI8 and or Q-VD-OPh at ~70% confluence for 6 h. After treatments, cells were washed with PBS and fixed with 4% PFA for 15 min. Then cells were permeabilized with 0.1% Triton X-100 in PBS for 10 min. Cells were blocked with 5% BSA in PBS-T and incubated overnight with primary antibodies as indicated; γH2AX (Sigma; 05-636, 1:100 dilution). After incubation with primary antibodies, cells were washed with PBS and incubated with the appropriate mouse secondary antibody (ThermoFisher Scientific; A-11001) in the blocking solution. After PBS washes, coverslips were dipped in water and mounted on glass slides using Vectashield containing DAPI (Vector laboratories). Images were taken with Leica SP5 inverted confocal microscope. Data were analyzed with ImageJ.

Cc1cccc(NC(C)c2cc(Cl)ccc2O)c1C (centres unmarked) [MFI8]
DNA damage (U2OS cells): induced DNA damage in U2OS cells | DNA damage (U2OS, co-treatment with pan-caspase inhibitor Q-VD-OPh): abolished the capacity of the latter to induce DNA damage
